The numbers were not newly measured in PMC4629110 (Acta Pharmaceutica Sinica. B, 2014), which cites them from elsewhere.

The test system of the series is BuChE. The settings on record: read-out: IC50 BuChE reported in the literature.

As to `CC(C)NP(=O)(NC(C)C)OP(=O)(NC(C)C)NC(C)C` [ISO-OMPA, tetraisopropyl pyrophosphoramide], the half-maximal inhibitory concentration (IC50) (as a rule, the concentration that inhibits the measured activity by half) is 980 nM.
